Experimental data reported in ChEMBL document CHEMBL1133350, “Novel DMARDs on the basis of a new concept of dual cytokine regulation, TNF-alpha suppression and IL-10 augmentation” (Bioorg Med Chem Lett, 2000).

Experiments:
[1] = Partition coefficient (logP); conditions: octanol/water
Mus musculus [2] = experiment: Inhibit tumor necrosis factor alpha production in LPS-stimulated mice after peroral administration of 10 mg/kg; assay type: functional; conditions: route oral
Mus musculus [3] = experiment: The compound (10 mg/kg) administered perorally was tested for its ability to augment IL-10 in LPS-stimulated mice; assay type: functional
Rattus norvegicus [4] = experiment: The compound (10 mg/kg) was tested for its therapeutic effect in an adjuvant-induced arthritis rat; assay type: functional
Rattus norvegicus [5] = experiment: The compound (30 mg/kg) was tested for its therapeutic effect in an adjuvant-induced arthritis rat; assay type: functional
[6] = Bioavailability of the compound in rats after administration of 30 mg/kg; assay type: ADME, organism-based; conditions: rat, in vivo, read-out: Bioavailabiility

## CC(=O)NCc1ccc(CN2CCN(c3nccs3)CC2)cc1
[1]
  logP: 1.23
Mus musculus [2]
  inhibition in vivo at 10 mg/kg: 85%
Mus musculus [3]
  IL-10 level (% of control): 1150%
Rattus norvegicus [4]
  Therapeutic effect: 80%

## CC(=O)NC1(c2ccc(CN3CCN(c4nccs4)CC3)cc2)CC1
[1]
  logP: 1.58
Mus musculus [2]
  inhibition in vivo at 10 mg/kg: 84%
Mus musculus [3]
  IL-10 level (% of control): 646%
Rattus norvegicus [4]
  Therapeutic effect: 133%

## CC(=O)NC1(c2ccc(CN3CCN(c4ccccc4)CC3)cc2)CC1
[1]
  logP: 1.9
Mus musculus [2]
  inhibition in vivo at 10 mg/kg: 90%
Mus musculus [3]
  IL-10 level (% of control): 712%

## CC(=O)NC(C)(C)c1ccc(CN2CCN(c3ncccn3)CC2)cc1
[1]
  logP: 1.18
Mus musculus [2]
  inhibition in vivo at 10 mg/kg: 77%
Mus musculus [3]
  IL-10 level (% of control): 200%

## CC(=O)NC(C)(C)c1ccc(CN2CCN(c3nccs3)CC2)cc1
[1]
  logP: 2.01
Mus musculus [2]
  inhibition in vivo at 10 mg/kg: 85%
Mus musculus [3]
  IL-10 level (% of control): 712%
Rattus norvegicus [4]
  Therapeutic effect: 131%

## CC(=O)NCc1ccc(CN2CCN(c3cccc(F)n3)CC2)cc1
[1]
  logP: 1.45
Mus musculus [2]
  inhibition in vivo at 10 mg/kg: 85%
Mus musculus [3]
  IL-10 level (% of control): 973%
Rattus norvegicus [4]
  Therapeutic effect: 144%

## CC(=O)NCc1ccc(CN2CCN(c3ccccn3)CC2)cc1
[1]
  logP: 0.88
Mus musculus [2]
  inhibition in vivo at 10 mg/kg: 88%
Mus musculus [3]
  IL-10 level (% of control): 642%
Rattus norvegicus [4]
  Therapeutic effect: 62%

## CC(=O)NCc1ccc(CN2CCN(c3ccccc3)CC2)cc1
[1]
  logP: 1.55
Mus musculus [2]
  inhibition in vivo at 10 mg/kg: 89%
Mus musculus [3]
  IL-10 level (% of control): 376%
Rattus norvegicus [5]
  Therapeutic effect: 35%

## CC(=O)NC(C)(C)c1ccc(CN2CCN(c3cccc(F)n3)CC2)cc1
[1]
  logP: 2.24
Mus musculus [2]
  inhibition in vivo at 10 mg/kg: 88%
Mus musculus [3]
  IL-10 level (% of control): 579%
Rattus norvegicus [4]
  Therapeutic effect: 142%

## CC(=O)NCc1ccc(CN2CCN(c3ccncc3)CC2)cc1
[1]
  logP: 0.51
Mus musculus [2]
  inhibition in vivo at 10 mg/kg: 40%
Mus musculus [3]
  IL-10 level (% of control): 198%

## CC(=O)NC(C)c1ccc(CN2CCN(c3ccccc3)CC2)cc1 (stereo unspecified)
[1]
  logP: 2.08
Mus musculus [2]
  inhibition in vivo at 10 mg/kg: 87%
Mus musculus [3]
  IL-10 level (% of control): 270%

## CC(=O)NC1(c2ccc(CN3CCN(c4ncccn4)CC3)cc2)CC1
[6]
  bioavailability: 76%
[1]
  logP: 0.75
Mus musculus [2]
  inhibition in vivo at 10 mg/kg: 88%
Mus musculus [3]
  IL-10 level (% of control): 419%
Rattus norvegicus [4]
  Therapeutic effect: 163%

## CC(=O)NC(C)c1ccc(CN2CCN(c3cccc(F)n3)CC2)cc1 (stereo unspecified)
[1]
  logP: 1.99
Mus musculus [2]
  inhibition in vivo at 10 mg/kg: 82%
Mus musculus [3]
  IL-10 level (% of control): 404%
Rattus norvegicus [4]
  Therapeutic effect: 173%

## CC(=O)NCc1ccc(CN2CCN(c3cnccn3)CC2)cc1
[1]
  logP: -0.09
Mus musculus [2]
  inhibition in vivo at 10 mg/kg: 76%
Mus musculus [3]
  IL-10 level (% of control): 334%

## CC(=O)NCc1ccc(CN2CCN(c3ncccn3)CC2)cc1
[1]
  logP: 0.4
Mus musculus [2]
  inhibition in vivo at 10 mg/kg: 82%
Mus musculus [3]
  IL-10 level (% of control): 713%
Rattus norvegicus [4]
  Therapeutic effect: 46%

## CC(=O)NC1(c2ccc(CN3CCN(c4cccc(F)n4)CC3)cc2)CC1
[1]
  logP: 1.8
Mus musculus [2]
  inhibition in vivo at 10 mg/kg: 84%
Mus musculus [3]
  IL-10 level (% of control): 454%
Rattus norvegicus [4]
  Therapeutic effect: 55%

## CC(=O)NC(C)(C)c1ccc(CN2CCN(c3ccccc3)CC2)cc1
[1]
  logP: 2.83
Mus musculus [2]
  inhibition in vivo at 10 mg/kg: 88%
Mus musculus [3]
  IL-10 level (% of control): 561%
Rattus norvegicus [5]
  Therapeutic effect: 80%

## CC(=O)NCc1ccc(CN2CCN(c3ccc(F)cc3F)CC2)cc1
Mus musculus [2]
  inhibition in vivo at 10 mg/kg: 91%
Mus musculus [3]
  IL-10 level (% of control): 2293%
Rattus norvegicus [5]
  Therapeutic effect: 173%

## CC(=O)NC(C)c1ccc(CN2CCN(c3nccs3)CC2)cc1 (stereo unspecified)
[1]
  logP: 1.76
Mus musculus [2]
  inhibition in vivo at 10 mg/kg: 84%
Mus musculus [3]
  IL-10 level (% of control): 621%
Rattus norvegicus [4]
  Therapeutic effect: 101%

## CC(=O)NCc1ccc(CN2CCN(c3cccnc3)CC2)cc1
[1]
  logP: 0.49
Mus musculus [2]
  inhibition in vivo at 10 mg/kg: 61%
Mus musculus [3]
  IL-10 level (% of control): 236%

## CCC(CC)(NC(C)=O)c1ccc(CN2CCN(c3ccccc3)CC2)cc1
[1]
  logP: 3.35
Mus musculus [2]
  inhibition in vivo at 10 mg/kg: 81%
Mus musculus [3]
  IL-10 level (% of control): 321%

## CCC(NC(C)=O)c1ccc(CN2CCN(c3ccccc3)CC2)cc1 (stereo unspecified)
[1]
  logP: 2.59
Mus musculus [2]
  inhibition in vivo at 10 mg/kg: 82%
Mus musculus [3]
  IL-10 level (% of control): 222%

## CC(=O)NC(C)c1ccc(CN2CCN(c3ncccn3)CC2)cc1 (stereo unspecified)
[1]
  logP: 0.93
Mus musculus [2]
  inhibition in vivo at 10 mg/kg: 78%
Mus musculus [3]
  IL-10 level (% of control): 298%

## CC(=O)NCc1ccc(CN2CCN(c3nccn3C)CC2)cc1
[1]
  logP: 0.67
Mus musculus [2]
  inhibition in vivo at 10 mg/kg: 62%
Mus musculus [3]
  IL-10 level (% of control): 747%
